# From patent US20150051295A1, “USE OF PROPANOL AND PROPENOL DERIVATIVES AS ANTIOXIDANTS” (MERCK PATENT GmbH, priority 2011, published 2015)
# Assay: Determination of the reducing (=antioxidative) property: TLC plate chromatographed, then sprayed with potassium permanganate solution
# Conditions: substance in MTB ether on TLC silica gel 60F254 plate, heptane/ethyl acetate 2/1, then sprayed with freshly prepared KMnO4/NaOH solution
# Experimental: Determination of the reducing (=antioxidative) property of 3-(4-tert-butyl phenyl)-1-(4-methoxyphenyl)prop-2-en-1-ol (substance 1a) and of 3-(4-tert-butylphenyl)-1-(4-methoxyphenyl)propan-1-ol (substance 2a): a little substance is dissolved in MTB ether and applied to a TLC plate (TLC silica gel 60F254 plate). The plate is chromatographed with heptane/ethyl acetate 2/1. […] The Rf values are at 0.61 (substance 2a) and 0.35 (substance 1a).
row,Structure (SMILES),reducing (=antioxidative) property: decolourisation of potassium permanganate spray solution at substance spots
1,"COc1ccc(C(O)CCc2ccc(C(C)(C)C)cc2)cc1 (centres unmarked) [substance 2a, 3-(4-tert-butylphenyl)-1-(4-methoxyphenyl)propan-1-ol]",decolorises at the substance spots
2,"COc1ccc(C(O)/C=C/c2ccc(C(C)(C)C)cc2)cc1 (centres unmarked) [substance 1a, 3-(4-tert-butylphenyl)-1-(4-methoxyphenyl)prop-2-en-1-ol]",decolorises at the substance spots
